According to US4018895A, “Aryloxyphenylpropylamines in treating depression” (Eli Lilly and Company, priority 1975, dated 1977):
Counter-ions that a name gives are not always drawn. Like-named read-outs stand apart in the source and are kept apart here.

What was measured:
brain serotonin = assay: Prevention of brain serotonin depletion caused by 4-chloroamphetamine; assay type: in vivo; conditions: rats injected with 4-chloroamphetamine; drug 15 mg./kg. intraperitoneally; 4 hours later
Protocol: Following this injection, the protecting drug was injected at a dose of 15 mg./kg. of rat-weight intraperitoneally and determinations of brain serotonin levels were carried out 4 hours later.

[1] = system: QRS complex of the electrocardiogram; assay: Electrocardiogram in anesthetized cats after intravenous injection; conditions: in words
[2] = system: hypothermia induced by the injection of reserpine; assay: Reserpine hypothermia reversal test; assay type: in vivo, mice; conditions: Mus musculus, ip, 1 h, Post-60 min., mice, read-out: Percent Antagonism Reserpine; for inhibition in vivo at 1 mg/kg: 1 mg./kg. intraperitoneally; for inhibition in vivo at 3 mg/kg: 3 mg./kg. intraperitoneally; for inhibition in vivo at 0.3 mg/kg: .3 mg./kg. intraperitoneally; for inhibition in vivo at 10 mg/kg: 10 mg./kg. intraperitoneally
Protocol: (§1) The apomorphine hypothermia antagonism test is carried out as follows: mice are injected with a dose of apomorphine known to reduce body temperature approximately 4° C. The compound under test is injected 1/2 hour before the injection of the apomorphine and the temperatures measured 1/2 hour after injection. The degree of antagonism is expressed as a percent reduction (as compared with controls) of the temperature decrease produced by the injection of the apomorphine. The reserpine hypothermia reversal test is carried out as follows: groups of mice are injected with reserpine and 16.5 hours later are injected intraperitoneally with graded doses of the drug, a different dose level being given to each group of mice. Temperatures are measured at 1 hour after injection of the drug under test and again the effectiveness of the drug is expressed as a percentage decrease in the hypothermia induced by the injection of reserpine as compared with the control group. In the tablets which follow, Table 4 gives the results in the apomorphine antagonism and reserpine reversal hypothermia tests for the secondary amines of this invention. In the table, the first column gives the substituent attached to the oxygen atom at the 3 position of the propylamine chain; columns 2 to 4 the percent antagonism against apomorphine hypothermia at dose levels of 0.3, 1 and 3 mg./kg. and columns 5-7 the percent reversal of reserpine hypothermia at the same dose levels.

[3] = system: hypothermia induced by the injection of apomorphine; assay: Apomorphine hypothermia antagonism test; assay type: in vivo, mice
Protocol: as §1, with “The compound under test is injected 1/2 hour before the injection of the apomorphine and the temperatures measured 1/2 hour after injection.” left out

[4] = system: norepinephrine uptake by synaptosomes from rat brain; assay: In vitro blockade of norepinephrine uptake by synaptosomes from rat brain; assay type: biochemical; conditions: norepinephrine 0.48 μM
From the text: (§2) This blockade is shown both in vitro with radioactive labelled compounds to determine the amount of monoamine uptake by synaptosomes from rat brain, and in vivo by a variety of methods. Among the physiologically active monoamines whose uptake is blocked by the compounds of this invention are included serotonin, norepinephrine and dopamine (3,4-dihydroxyphenylethylamine). […] Tables 1 and 2 which follow set forth the results of some of the in vitro determinations of the blockage of monoamine uptake by the compounds of this invention. In the tables, column 1 gives the R substituent on the 3-phenylpropylamine and columns 2-4, the concentration in micrograms per ml. that blocks the uptake of a particular amine by 50 percent for the amines--norephinephrine, serotonin, and dopamine. At the head of each column is given the concentration of the particular monoamine used in the experiment.

[5] = system: dopamine uptake by synaptosomes from rat brain; assay: In vitro blockade of dopamine uptake by synaptosomes from rat brain; assay type: biochemical; conditions: dopamine 0.2 μM
From the text: as §2

[6] = system: serotonin uptake by synaptosomes from rat brain; assay: In vitro blockade of serotonin uptake by synaptosomes from rat brain; assay type: biochemical; conditions: serotonin 0.1 μM
From the text: as §2

[7] = system: response rates of pigeons; assay: Operant behavior, fixed-ratio, fixed interval schedule; assay type: in vivo
From the text: In manifesting their psychotropic action, the compounds of this invention also affect the behavior of animals trained in a variety of operant behavior schedules. Again, the activity of compounds of this invention in this type of test parallels that of known antidepressant drugs, particularly desmethylimipramine. […] With pigeons trained under an adjusting ratio schedule, the drugs of this invention affect behavior in the same way as does the marketed antidepressant, desmethylimipramine (DMI). […] The above results are consistent with antidepressant action.

[8] = Table 5, dimethylamino compounds
[9] = Table 5, dimethylamino compounds, 1 mg./kg., Pre-30 min., mice
[10] = Table 5, dimethylamino compounds, 3 mg./kg., Pre-30 min., mice
[11] = Table 5, dimethylamino compounds, 10 mg./kg., Pre-30 min., mice
[12] = Mus musculus, Table 5, dimethylamino compounds, 3 mg./kg., Pre-30 min., mice, read-out: Percent Antagonism Apomorphine
[13] = Mus musculus, Table 5, dimethylamino compounds, 10 mg./kg., Pre-30 min., mice, read-out: Percent Antagonism Apomorphine
[14] = Mus musculus, Table 4, secondary amines, 1 mg./kg., Pre-30 min., mice, read-out: Percent Antagonism Apomorphine
[15] = Mus musculus, Table 4, secondary amines, 3 mg./kg., Pre-30 min., mice, read-out: Percent Antagonism Apomorphine
[16] = Mus musculus, Table 5, dimethylamino compounds, 1 mg./kg., Pre-30 min., mice, read-out: Percent Antagonism Apomorphine

Row | SMILES | inhibition in vivo at 1 mg/kg [2, 8] | inhibition in vivo at 3 mg/kg [2, 8] | inhibition in vivo at 10 mg/kg [2, 8] | Concentration that blocks 50% of amine uptake, Norepinephrine ([4]; Table 1, scaffold drawing 3) | Concentration that blocks 50% of amine uptake, Dopamine ([5]; Table 1, scaffold drawing 3) | Concentration that blocks 50% of amine uptake, Serotonin ([6]; Table 1, scaffold drawing 3) | inhibition in vivo at 3 mg/kg [3, 12] | inhibition in vivo at 10 mg/kg [3, 13] | also measured
1 | CNCCC(Oc1ccc(C(F)(F)F)cc1)c1ccccc1 (stereo not shown) [p-trifluoromethylphenyl, N-methyl 3-(p-trifluoromethylphenoxy)-3-phenylpropylamine] | – | – | – | – | – | – | – | – | Brain serotonin level (brain serotonin): 0.69 ± .02 µg/g
2 | CN(C)CCCN1c2ccccc2CCc2ccc(Cl)cc21 [chloroimipramine] | – | – | – | – | – | – | – | – | Brain serotonin level (brain serotonin): 0.45 ± .03 µg/g
3 | COc1ccccc1OC(CCN)c1ccccc1 (stereo not shown) [3-(o-Methoxyphenoxy)-3-phenylpropylamine, 3-(o-methoxyphenoxy)-3-phenylpropylamine] | – | – | – | – | – | – | – | – | Effect on the electrocardiogram (widening of the QRS complex) [1]: affects the electrocardiogram similarly, but at far higher doses
4 | CN(C)CCC(Oc1ccc(F)cc1F)c1ccccc1 (stereo not shown) [2,4-difluorophenyl] | 11% | 12% | 30% | .2 mcq./ml. | 10 mcq./ml. | .3 mcq./ml. | – | – | inhibition in vivo at 1 mg/kg ([2]; Table 4, secondary amines): 17%; inhibition in vivo at 3 mg/kg ([2]; Table 4, secondary amines): 27%; inhibition in vivo at 0.3 mg/kg ([2]; Table 4, secondary amines): 13%; inhibition in vivo at 0.3 mg/kg [2, 8]: 23%; Percent Antagonism Apomorphine ([3]; Table 4, secondary amines, 1 mg./kg., Pre-30 min., mice): 53%; Percent Antagonism Apomorphine ([3]; Table 4, secondary amines, 3 mg./kg., Pre-30 min., mice): 64%; Percent Antagonism Apomorphine ([3]; Table 4, secondary amines, .3 mg./kg., Pre-30 min., mice): 20%; Percent Antagonism Apomorphine [3, 9]: 26%; Percent Antagonism Apomorphine [3, 10]: 55%; Percent Antagonism Apomorphine [3, 11]: 98%; Concentration that blocks 50% of amine uptake, Norepinephrine ([4]; Table 2, scaffold drawing 4): > 100 µg/mL; Concentration that blocks 50% of amine uptake, Dopamine ([5]; Table 2, scaffold drawing 4): > 100 µg/mL; Concentration that blocks 50% of amine uptake, Serotonin ([6]; Table 2, scaffold drawing 4): 4.5 µg/mL
5 | CN(C)CCC(Oc1ccccc1)c1ccccc1 (stereo not shown) [phenyl] | 20% | 20% | 49% | 1 mcq./ml. | .3 mcq./ml. | .6 mcq./ml. | 3% | 54% | –
6 | CN(C)CCC(Oc1ccccc1C(F)(F)F)c1ccccc1.Cc1ccc(S(=O)(=O)O)cc1 (stereo not shown) [o-trifluoromethylphenyl, N,N-dimethyl 3-(o-trifluoromethylphenoxy)-3-phenylpropylamine p-toluene-sulfonate] | – | – | 10% | 70 mcq./ml. | > 100 mcq./ml. | .16 mcq./ml. | 32% | 55% | inhibition in vivo at 1 mg/kg ([2]; Table 4, secondary amines): 9%; inhibition in vivo at 3 mg/kg ([2]; Table 4, secondary amines): 8%; inhibition in vivo at 1 mg/kg [3, 14]: 13%; inhibition in vivo at 3 mg/kg [3, 15]: 28%; inhibition in vivo at 1 mg/kg [3, 16]: 21%; Concentration that blocks 50% of amine uptake, Norepinephrine ([4]; Table 2, scaffold drawing 4): 6.0 µg/mL; Concentration that blocks 50% of amine uptake, Dopamine ([5]; Table 2, scaffold drawing 4): > 100 µg/mL; Concentration that blocks 50% of amine uptake, Serotonin ([6]; Table 2, scaffold drawing 4): 2.5 µg/mL
7 | CNCCC(Oc1cccc(OC)c1)c1ccccc1.O=C(O)C(=O)O (stereo not shown) [m-anisyl, N-methyl 3-phenyl-3-(m-methoxyphenoxy)propylamine oxalate] | -1% | 6% | 5% | – | – | – | -7% | -5% | inhibition in vivo at 1 mg/kg ([2]; Table 4, secondary amines): 21%; inhibition in vivo at 3 mg/kg ([2]; Table 4, secondary amines): 21%; inhibition in vivo at 0.3 mg/kg ([2]; Table 4, secondary amines): 8%; inhibition in vivo at 1 mg/kg [3, 14]: 15%; inhibition in vivo at 3 mg/kg [3, 15]: 71%; inhibition in vivo at 0.3 mg/kg ([3]; Mus musculus, Table 4, secondary amines, .3 mg./kg., Pre-30 min., mice, read-out: Percent Antagonism Apomorphine): 15%; inhibition in vivo at 1 mg/kg [3, 16]: -12%; Concentration that blocks 50% of amine uptake, Norepinephrine ([4]; Table 2, scaffold drawing 4): .15 µg/mL; Concentration that blocks 50% of amine uptake, Dopamine ([5]; Table 2, scaffold drawing 4): .45 µg/mL; Concentration that blocks 50% of amine uptake, Serotonin ([6]; Table 2, scaffold drawing 4): 4.5 µg/mL
8 | CNCCC(Oc1ccccc1OC)c1ccccc1.Cl (stereo not shown) [o-anisyl, N-methyl 3-(o-methoxyphenoxy)-3-phenylpropylamine hydrochloride] | – | – | – | – | – | – | – | – | Reduction of apomorphine hypothermia ([3]; 10 mg./kg. dose, measured 60 minutes after injection of the apomorphine): 100%; Persistence of the effect on response rates [7]: more than 24 hours
9 | CCOc1ccccc1OC(CCN(C)C)c1ccccc1.O=C(O)C(=O)O (stereo not shown) [o-phenetyl, N,N-dimethyl 3-(o-ethoxyphenoxy)-3-phenylpropylamine oxalate] | – | 16% | 40% | 3 mcq./ml. | > 100 mcq./ml. | 6 mcq./ml. | 13% | 76% | –
10 | CN(C)CCC(Oc1ccccc1Cl)c1ccccc1.O=C(O)/C=C\C(=O)O (stereo not shown) [o-chlorophenyl, N,N-dimethyl 3-(o-chlorophenoxy)-3-phenylpropylamine maleate] | 3% | 4% | 25% | .45 mcq./ml. | .2 mcq./ml. | .2 mcq./ml. | -17% | 57% | inhibition in vivo at 1 mg/kg [3, 16]: -10%
11 | CC(C)c1ccccc1OC(CCN(C)C)c1ccccc1 (stereo not shown) [o-isopropylphenyl, oxalate] | 20% | 28% | 35% | 1.5 mcq./ml. | > 100 mcq./ml. | > 100 mcq./ml. | – | – | inhibition in vivo at 0.3 mg/kg [2, 8]: 12%; Percent Antagonism Apomorphine [3, 9]: 17%; Percent Antagonism Apomorphine [3, 10]: 39%; Percent Antagonism Apomorphine [3, 11]: 65%; Percent Antagonism Apomorphine ([3]; Table 5, dimethylamino compounds, .3 mg./kg., Pre-30 min., mice): 3%
